Measurements from ChEMBL document CHEMBL2417406, “Exploring the orthosteric binding site of the γ-aminobutyric acid type A receptor using 4-(Piperidin-4-yl)-1-hydroxypyrazoles 3- or 5-imidazolyl substituted: design, synthesis, and pharmacological evaluation” (J Med Chem, 2013).

Columns and labels:
[1] = biological target: T1, GABA-A receptor; alpha-1/beta-2/gamma-2 (Homo sapiens, UniProt P14867+P18507+P47870); test: Antagonist activity at human alpha1beta2gamma2S GABA-A receptor expressed in tsA201 cells assessed as inhibition of GABA-induced effect after 30 mins by FLIPR membrane potential blue assay; format: cell-based
T1 sequence (P14867 whole entry): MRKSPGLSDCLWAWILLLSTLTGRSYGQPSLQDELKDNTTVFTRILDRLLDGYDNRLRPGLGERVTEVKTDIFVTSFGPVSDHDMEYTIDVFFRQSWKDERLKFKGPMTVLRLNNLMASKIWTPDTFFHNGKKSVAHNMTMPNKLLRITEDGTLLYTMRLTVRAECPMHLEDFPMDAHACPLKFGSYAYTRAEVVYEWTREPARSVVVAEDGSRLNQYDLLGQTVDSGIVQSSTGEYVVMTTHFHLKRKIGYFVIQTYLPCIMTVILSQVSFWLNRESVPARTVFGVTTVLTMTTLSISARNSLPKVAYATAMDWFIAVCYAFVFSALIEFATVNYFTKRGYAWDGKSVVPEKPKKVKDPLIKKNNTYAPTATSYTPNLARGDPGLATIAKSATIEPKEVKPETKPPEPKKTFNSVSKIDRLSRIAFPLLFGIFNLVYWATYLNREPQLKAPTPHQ
T1 sequence (P47870 whole entry): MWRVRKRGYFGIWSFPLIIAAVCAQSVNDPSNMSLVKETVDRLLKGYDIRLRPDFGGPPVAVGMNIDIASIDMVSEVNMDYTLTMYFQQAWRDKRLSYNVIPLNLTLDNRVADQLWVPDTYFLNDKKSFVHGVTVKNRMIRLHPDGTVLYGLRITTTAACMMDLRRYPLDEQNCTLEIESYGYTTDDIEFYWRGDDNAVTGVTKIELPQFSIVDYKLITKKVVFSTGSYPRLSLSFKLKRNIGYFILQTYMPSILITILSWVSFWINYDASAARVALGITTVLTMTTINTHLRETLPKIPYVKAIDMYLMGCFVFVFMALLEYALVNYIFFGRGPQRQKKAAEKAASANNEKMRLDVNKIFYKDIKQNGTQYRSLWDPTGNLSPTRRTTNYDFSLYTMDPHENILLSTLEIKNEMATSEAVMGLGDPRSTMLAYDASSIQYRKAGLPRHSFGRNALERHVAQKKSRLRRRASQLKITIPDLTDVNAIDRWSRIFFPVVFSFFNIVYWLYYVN
T1 sequence (P18507 whole entry): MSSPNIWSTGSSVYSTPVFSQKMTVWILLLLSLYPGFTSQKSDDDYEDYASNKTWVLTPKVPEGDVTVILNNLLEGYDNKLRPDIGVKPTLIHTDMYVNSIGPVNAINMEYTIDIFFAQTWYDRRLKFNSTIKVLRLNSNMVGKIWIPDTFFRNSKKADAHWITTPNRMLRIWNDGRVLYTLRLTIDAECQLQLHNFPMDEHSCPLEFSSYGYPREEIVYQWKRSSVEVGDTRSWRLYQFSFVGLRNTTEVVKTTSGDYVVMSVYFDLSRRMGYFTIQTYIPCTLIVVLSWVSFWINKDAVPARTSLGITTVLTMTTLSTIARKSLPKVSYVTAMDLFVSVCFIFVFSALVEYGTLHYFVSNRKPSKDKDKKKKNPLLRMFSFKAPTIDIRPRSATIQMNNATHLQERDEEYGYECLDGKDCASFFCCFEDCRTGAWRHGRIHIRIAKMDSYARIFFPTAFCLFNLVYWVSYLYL

[2] = Displacement of [3H] muscimol from rat GABA A receptor

| Structure (SMILES) | IC50 [1] | Ki [2] | pKi [2] |
| --- | --- | --- | --- |
| On1cc(C2CCNCC2)cn1 | > 500 µM | 10 µM |  |
| On1cc(C2CCNCC2)c(-c2c[nH]cn2)n1 | 30 µM | 5.1 µM | 5.31 |
| On1cc(C2CCNCC2)c(-c2cn(Cc3ccccc3)c(Cl)n2)n1 |  | 0.74 µM | 6.14 |
| On1cc(C2CCNCC2)c(-c2c[nH]c(-c3ccccc3)n2)n1 | 9.7 µM | 2.5 µM | 5.61 |
| On1cc(C2CCNCC2)c(-c2cn(Cc3ccccc3)cn2)n1 |  | 0.75 µM | 6.13 |
| On1ncc(C2CCNCC2)c1-c1c[nH]cn1 |  | 7.5 µM | 5.14 |
| On1ncc(C2CCNCC2)c1-c1cn(Cc2ccccc2)c(Cl)n1 |  | 0.83 µM | 6.09 |

Next, values leading:

| IC50 [1] | Ki [2] | pKi [2] | Structure (SMILES) |
| --- | --- | --- | --- |
|  | 0.03 µM |  | On1cc(C2CCNCC2)c(-c2cccc(-c3ccccc3)c2)n1 |
| 0.21 µM | 0.28 µM | 6.57 | On1cc(C2CCNCC2)c(-c2cn(Cc3ccccc3)c(-c3ccccc3)n2)n1 |
| 0.69 µM | 0.014 µM | 7.86 | On1ncc(C2CCNCC2)c1-c1c[nH]c(-c2ccccc2)n1 |
| 0.78 µM | 0.23 µM | 6.64 | On1ncc(C2CCNCC2)c1-c1cn(Cc2ccccc2)c(-c2ccccc2)n1 |
